Data reported in publication PMC4014704, “β-Boomerang Antimicrobial and Antiendotoxic Peptides: Lipidation and Disulfide Bond Effects on Activity and Structure” (Pharmaceuticals, 2014).
Converted amounts (≈) assume the structure as drawn. Peptide text beside a SMILES is read from it.

What was measured:
LPS micelles [1] = test: Isothermal titration calorimetry; type: binding, E. coli 0111:B4; conditions: ITC
Experimental: Isothermal titration calorimetry: Binding of designed peptides with LPS micelles was determined using isothermal titration calorimetry in VP-ITC micro calorimeter (Microcal Inc, Northampton, MA, USA). Peptides and LPS samples were dissolved in 10 mM phosphate buffer, pH 7.0 and filtered. LPS at a concentration of 10 μM was loaded into the sample cell and the reference cell was filled with the same buffer. The syringe was filled with 1mM peptide solution. Typically 30 injections of 3.5 μL of the peptides were made into the sample cell at 25 °C. Sample cell was stirred continuously at 300 rpm. Raw data were obtained and analyzed using single site binding model in Microcal Origin 5.0 software. Association constant (Ka) and enthalpy change (ΔH) were directly determined from ITC profiles. Dissociation constant was calculated from Kd = 1/Ka. ΔG and TΔS were estimated from the fundamental equations of thermodynamics, ΔG = −RTlnKa and TΔS = (ΔH − ΔG), respectively.

[2] = Reverse phase HPLC retention time (hydrophobicity); type: physicochemical; parameters: unit not given beside the values; conditions: C18 column (300 Å pore size, 5 μm particle size), linear gradient acetonitrile/water, higher Rt taken as more hydrophobic
Text: Materials: LPS of E. coli 0111:B4, FITC-LPS of E. coli 055:B5, acrylamide, NPN (1-N-phenylnaphthylamine) were purchased from Sigma (Saint Louis, MO, USA). All bacterial strains were obtained from the American Type Culture Collection (Manassas, VA, USA). Designed peptides were synthesized commercially by GL Biochem (Shanghai, China) and further purified by a reverse phase HPLC (Waters), using a C18 column (300 Å pore size, 5 μm particle size). The dimeric variants of β-boomerang lipopeptides were treated with 20% DMSO for 18 hours and the oxidized peptides were further purified by HPLC. A linear gradient of acetonitrile/water mixture was used for the purification and fractions eluting with higher purity were collected and freeze-dried.
(§1) In addition, incorporation of disulfide bridges in AMPs may stabilize conformations and enhance cationicity and hydrophobicity required for enhanced activity. […] Residue Ile10 was chosen for Cys replacement since this residue is located at the exposed face of the β-strand of the YI12WF structure (Figure 1).

LPS (endotoxin) = test: LPS neutralization assay (chromogenic LAL kit); type: biochemical; conditions: 10 μM peptide concentration
Experimental: LPS neutralization assay: LAL chromogenic kit (QCL 100 Cambrex, Walkersville, MD, USA) was used to determine endotoxin neutralization of the designed peptides following protocol of the vendor. LPS in Gram negative bacteria activates a proenzyme in limulus amoebocyte lysate (LAL). This activated enzyme in turn catalytically release a colored product pNA from the colorless substrate Ac-Ile-Glu-Ala-Arg-pNA which is detected spectrophotometrically at OD410. All peptides were dissolved in the pyrogen-free water supplied with the kit and pH was adjusted to 7.0 with 1N HCl or 1N NaOH (which is prepared in pyrogen-free water). The increasing concentrations of the peptides were incubated with three different concentrations of endotoxins, i.e., at 0.4, 0.8 and 1.0 endotoxin units (EU) in a total volume of 50 μL for 30 minutes at 37 °C. About 50 μL of LAL reagent was added to peptide-LPS complex and further incubated for 10 minutes followed by addition of 100 μL substrate. After incubation of six minutes for the reaction, the release of colored product was recorded at OD410. Water in the place of peptides served as negative control (blank) that is considered as 0% inhibition and percentage of LPS neutralization was calculated by: % of LPS neutralization = [(OD blank − OD peptide)/OD blank] × 100

red blood cells = conditions: mouse RBC ~4% (v/v) in PBS pH 7.0, 1 h, OD540, 1% Triton-X = positive control
Experimental: Hemolytic assay: Blood was collected from healthy mice in a tube containing EDTA. Cells with EDTA were centrifuged at 800 g for 10 min, to remove the buffy plasma coat layer, and washed three times in PBS (35 mM phosphate buffer, 150 mM NaCl, pH 7.0). 50 μL of RBC solution was added to equal volume of two-fold dilution of the peptides in 96-well micro titer plates and incubated for one hour. The final erythrocyte concentration estimated to be ~4% (v/v). After one hour, the mixture was centrifuged and the release of hemoglobin in the supernatant was determined spectrophotometrically at OD540. Buffer and 1% Triton-X in the place of peptides used as negative control and positive control, respectively. The percentage of hemolysis was calculated using the following method: Percentage of hemolysis = (OD peptide − OD buffer)/(OD Triton-X-OD buffer) × 100

E.faecalis (ATCC 29212) = test: Antibacterial assay (MIC); type: cell-based; conditions: 10 mM phosphate buffer pH 6.8, 3 h 37 °C, streaked on Mueller-Hinton agar
Experimental: (§2) Antibacterial assay: The minimum inhibitory concentration (MIC) of the designed peptides was determined against four Gram-negative strains (E. coli, P. aeruginosa ATCC 27853, K. pneumoniae ATCC 13883, S. enterica ATCC 14028) and four Gram-positive strains (B. subtilis, S. aureus ATCC 25923, S. pyogenes ATCC 19615 and E. faecalis ATCC 29212). In brief, mid logarithmic phase of overnight grown bacterial cultures were obtained in LB broth and adjusted to OD600 0.2 in 10 mM phosphate buffer, pH 6.8. About 50 μL of these cells were added to equal volume of designed peptides at two-fold dilutions in 96-well sterile polypropylene plates followed by incubation for 3hrs at 37 °C. Aliquots of the above titrated wells were streaked onto Mueller-Hinton agar plates and the concentration at which no visible bacterial growth was observed considered as the MIC value of the peptide.

[3] = test system: K. pneumoniae (ATCC 13883); test: Antibacterial assay (MIC); type: cell-based; conditions: 10 mM phosphate buffer pH 6.8, 3 h 37 °C, streaked on Mueller-Hinton agar
Experimental: as §2

S.pyogenes (ATCC 19615) = test: Antibacterial assay (MIC); type: cell-based; conditions: 10 mM phosphate buffer pH 6.8, 3 h 37 °C, streaked on Mueller-Hinton agar
Experimental: as §2

B.subtilis (Lab strain) = test: Antibacterial assay (MIC); type: cell-based; conditions: 10 mM phosphate buffer pH 6.8, 3 h 37 °C, streaked on Mueller-Hinton agar
Experimental: as §2

S.aureus (ATCC 25923) = test: Antibacterial assay (MIC); type: cell-based; conditions: 10 mM phosphate buffer pH 6.8, 3 h 37 °C, streaked on Mueller-Hinton agar
Experimental: as §2

[4] = test system: P.aeruginosa (ATCC 27853); test: Antibacterial assay (MIC); type: cell-based; conditions: 10 mM phosphate buffer pH 6.8, 3 h 37 °C, streaked on Mueller-Hinton agar
Experimental: as §2

S.enterica (ATCC 14028) = test: Antibacterial assay (MIC); type: cell-based; conditions: 10 mM phosphate buffer pH 6.8, 3 h 37 °C, streaked on Mueller-Hinton agar
Experimental: as §2

E.coli (Lab strain) = test: Antibacterial assay (MIC); type: cell-based; conditions: 10 mM phosphate buffer pH 6.8, 3 h 37 °C, streaked on Mueller-Hinton agar, no visible growth
Experimental: as §2

LPS micelles [5] = test: Dynamic light scattering of LPS micelles; parameters: species or system E. coli 0111:B4; conditions: DLS, 0.5 μM LPS, LPS:peptide 1:4; LPS alone 814 nm
Experimental: Dynamic light scattering measurements: LPS forms micelles of large sizes, which with the addition of increasing concentration of peptides, dissociates to smaller sizes. DLS measurements were made for 0.5 μM LPS and then with LPS: Peptide ratios of 1:2 and 1:4. The scattering was measured with Dynamic Light Scattering software provided with the instrument (Brookhaven Instruments Corp., Holtsville, NY, USA) and the scattering data was analyzed with CONTIN method.

[6] = buffers
Text: as §1
The solution conformations of YI13C, C4YI13C peptides were examined in free solution using two-dimensional ^1H-^1H NOESY and TOCSY experiments.

## CC[C@H](C)[C@H](NC(=O)[C@H](Cc1ccccc1)NC(=O)[C@H](CSSC[C@H](NC(=O)[C@H](Cc1ccccc1)NC(=O)[C@H](CCCCN)NC(=O)[C@H](CCCNC(=N)N)NC(=O)[C@H](CCCCN)NC(=O)[C@H](CCCNC(=N)N)NC(=O)[C@H](CCCCN)NC(=O)[C@H](Cc1c[nH]c2ccccc12)NC(=O)[C@H](CC(C)C)NC(=O)[C@@H](NC(=O)[C@@H](N)Cc1ccc(O)cc1)C(C)C)C(=O)N[C@@H](Cc1ccccc1)C(=O)N[C@H](C(N)=O)[C@@H](C)CC)NC(=O)[C@H](Cc1ccccc1)NC(=O)[C@H](CCCCN)NC(=O)[C@H](CCCNC(=N)N)NC(=O)[C@H](CCCCN)NC(=O)[C@H](CCCNC(=N)N)NC(=O)[C@H](CCCCN)NC(=O)[C@H](Cc1c[nH]c2ccccc12)NC(=O)[C@H](CC(C)C)NC(=O)[C@@H](NC(=O)[C@@H](N)Cc1ccc(O)cc1)C(C)C)C(N)=O [YI13C] (HELM PEPTIDE1{Y.V.L.W.K.R.K.R.K.F.C.F.I.[am]}|PEPTIDE2{Y.V.L.W.K.R.K.R.K.F.C.F.I.[am]}$PEPTIDE1,PEPTIDE2,11:R3-11:R3$$$V2.0)
LPS micelles [1]; 1 mM peptide into 10 μM LPS, 10 mM phosphate buffer pH 7.0, 25 °C, single site binding model
  Ka: 4.2 µM⁻¹
LPS micelles [1]; LPS micelles, pH 7.0, 25 °C, Kd = 1/Ka
  Kd: 230 nM
[2]
  Retention time (Rt): 27.48
LPS (endotoxin)
  LPS neutralization (in words): neutralization activity equal to acylated analogs
Red blood cells
  % of hemolysis at 50 μM peptide concentration: 21.5%
E.faecalis (ATCC 29212)
  Minimum inhibitory concentration (MIC): 50 µM (≈ 179 µg/mL)
[3]
  Minimum inhibitory concentration (MIC): 25 µM (≈ 89.3 µg/mL)
S.pyogenes (ATCC 19615)
  Minimum inhibitory concentration (MIC): 50 µM (≈ 179 µg/mL)
B.subtilis (Lab strain)
  Minimum inhibitory concentration (MIC): 20 µM (≈ 71.4 µg/mL)
S.aureus (ATCC 25923)
  Minimum inhibitory concentration (MIC): 20 µM (≈ 71.4 µg/mL)
[4]
  Minimum inhibitory concentration (MIC): 20 µM (≈ 71.4 µg/mL)
S.enterica (ATCC 14028)
  Minimum inhibitory concentration (MIC): 50 µM (≈ 179 µg/mL)
E.coli (Lab strain)
  Minimum inhibitory concentration (MIC): 12.5 µM (≈ 44.6 µg/mL)
LPS micelles [5]
  Diameter of LPS aggregates: 291 nm

## CCCC(=O)N[C@@H](Cc1ccc(O)cc1)C(=O)N[C@H](C(=O)N[C@@H](CC(C)C)C(=O)N[C@@H](Cc1c[nH]c2ccccc12)C(=O)N[C@@H](CCCCN)C(=O)N[C@@H](CCCNC(=N)N)C(=O)N[C@@H](CCCCN)C(=O)N[C@@H](CCCNC(=N)N)C(=O)N[C@@H](Cc1ccccc1)C(=O)N[C@H](C(=O)N[C@@H](Cc1ccccc1)C(=O)N[C@H](C(N)=O)[C@@H](C)CC)[C@@H](C)CC)C(C)C [C4YI12WF] (HELM PEPTIDE1{[CCCC(=O)[*:2]].Y.V.L.W.K.R.K.R.F.I.F.I.[am]}$$$$V2.0)
[6]
  Solubility in buffers (in words): remained insoluble in buffers

## CCCCCCCC(=O)N[C@@H](Cc1ccc(O)cc1)C(=O)N[C@H](C(=O)N[C@@H](CC(C)C)C(=O)N[C@@H](Cc1c[nH]c2ccccc12)C(=O)N[C@@H](CCCCN)C(=O)N[C@@H](CCCNC(=N)N)C(=O)N[C@@H](CCCCN)C(=O)N[C@@H](CCCNC(=N)N)C(=O)N[C@@H](Cc1ccccc1)C(=O)N[C@@H](CSSC[C@H](NC(=O)[C@H](Cc1ccccc1)NC(=O)[C@H](CCCNC(=N)N)NC(=O)[C@H](CCCCN)NC(=O)[C@H](CCCNC(=N)N)NC(=O)[C@H](CCCCN)NC(=O)[C@H](Cc1c[nH]c2ccccc12)NC(=O)[C@H](CC(C)C)NC(=O)[C@@H](NC(=O)[C@H](Cc1ccc(O)cc1)NC(=O)CCCCCCC)C(C)C)C(=O)N[C@@H](Cc1ccccc1)C(=O)N[C@H](C(N)=O)[C@@H](C)CC)C(=O)N[C@@H](Cc1ccccc1)C(=O)N[C@H](C(N)=O)[C@@H](C)CC)C(C)C [C8YI12WFC] (HELM PEPTIDE1{[CCCCCCCC(=O)[*:2]].Y.V.L.W.K.R.K.R.F.C.F.I.[am]}|PEPTIDE2{[CCCCCCCC(=O)[*:2]].Y.V.L.W.K.R.K.R.F.C.F.I.[am]}$PEPTIDE1,PEPTIDE2,11:R3-11:R3$$$V2.0)
[6]
  Solubility in buffers (in words): remained insoluble in buffers

## CCCC(=O)N[C@@H](Cc1ccc(O)cc1)C(=O)N[C@H](C(=O)N[C@@H](CC(C)C)C(=O)N[C@@H](Cc1c[nH]c2ccccc12)C(=O)N[C@@H](CCCCN)C(=O)N[C@@H](CCCNC(=N)N)C(=O)N[C@@H](CCCCN)C(=O)N[C@@H](CCCNC(=N)N)C(=O)N[C@@H](Cc1ccccc1)C(=O)N[C@@H](CSSC[C@H](NC(=O)[C@H](Cc1ccccc1)NC(=O)[C@H](CCCNC(=N)N)NC(=O)[C@H](CCCCN)NC(=O)[C@H](CCCNC(=N)N)NC(=O)[C@H](CCCCN)NC(=O)[C@H](Cc1c[nH]c2ccccc12)NC(=O)[C@H](CC(C)C)NC(=O)[C@@H](NC(=O)[C@H](Cc1ccc(O)cc1)NC(=O)CCC)C(C)C)C(=O)N[C@@H](Cc1ccccc1)C(=O)N[C@H](C(N)=O)[C@@H](C)CC)C(=O)N[C@@H](Cc1ccccc1)C(=O)N[C@H](C(N)=O)[C@@H](C)CC)C(C)C [C4YI12WFC] (HELM PEPTIDE1{[CCCC(=O)[*:2]].Y.V.L.W.K.R.K.R.F.C.F.I.[am]}|PEPTIDE2{[CCCC(=O)[*:2]].Y.V.L.W.K.R.K.R.F.C.F.I.[am]}$PEPTIDE1,PEPTIDE2,11:R3-11:R3$$$V2.0)
[6]
  Solubility in buffers (in words): remained insoluble in buffers

## CCCCCCCC(=O)N[C@@H](Cc1ccc(O)cc1)C(=O)N[C@H](C(=O)N[C@@H](CC(C)C)C(=O)N[C@@H](Cc1c[nH]c2ccccc12)C(=O)N[C@@H](CCCCN)C(=O)N[C@@H](CCCNC(=N)N)C(=O)N[C@@H](CCCCN)C(=O)N[C@@H](CCCNC(=N)N)C(=O)N[C@@H](Cc1ccccc1)C(=O)N[C@H](C(=O)N[C@@H](Cc1ccccc1)C(=O)N[C@H](C(N)=O)[C@@H](C)CC)[C@@H](C)CC)C(C)C [C8YI12WF] (HELM PEPTIDE1{[CCCCCCCC(=O)[*:2]].Y.V.L.W.K.R.K.R.F.I.F.I.[am]}$$$$V2.0)
[6]
  Solubility in buffers (in words): remained insoluble in buffers
